In patent US9562053B2, “Benzo-fused heterocyclic derivatives useful as agonists of GPR120” (Janssen Pharmaceutica NV, priority 2013, dated 2017):

Test system: C57Bl6 mice on a high fat diet
Experiment: GPR120 DIO Mice OGTT Screening
Assay type: in vivo, mouse
Settings: 10 mg/kg dosed 30 min before glucose, glucose AUC −30 to 90 min, change from vehicle, printed as %
Experimental: 18-22 week old, C57Bl6 mice on a high fat diet (60% HFD) for 12-16 weeks (ave. body weight ˜37-41 g) were fasted for 6 hr, with removal of food occurring at 7 am on the morning of the study. The animals were sorted into treatment groups the day before the study by body weight. Animals outside the bounds of ˜30-50 g were left out of the study. The animals had been handled and shammed a total of 5-8 days (1-3 days immediately prior to the study). Glucose (in 1 ml syringes) was drawn up the morning of the study. Test compounds were kept spinning and were only drawn into 1 ml syringes prior to study commencement. Animals were bled via tail snip to determine basal glucose levels prior to dosing of treatments. […]
Animals were moved into the testing room at ˜9-11 am, to yield them time to acclimate. […] All groups were dosed 30 minutes prior to glucose administration at a dose volume of 10 ml/kg (the dose volume was calculated separately for each individual animal). […]
Thirty minutes after the first dose (with test compound) animals were bled again for a second baseline, or T=0, and immediately dosed with glucose (20% solution; TEKNOVA, 250 ml sterile bottle w/catalogue number G0525) via a PO injection. The exact dose volume for glucose was also calculated separately for each individual animal.
Blood glucose was measured at 15, 30, 45, 60, and 90 minutes post-glucose administration via the snipped tail. […]

SMILES	DIO Lowering Glucose AUC (−30 to 90) @10 mg/kg
Cc1cc2cc(Cl)c(C)c(COc3ccc(CCC(=O)O)c(C)c3C)c2o1 [Compound 85, 3-{4-[(5-Chloro-2,6-dimethyl-1-benzofuran-7-yl)methoxy]-2,3-dimethylphenyl}propanoic acid]	−37%
Cc1cc2c(F)c(OC(F)(F)F)c(F)c(COc3ccc(CCC(=O)O)c(F)c3F)c2o1 [Compound 75, 3-(4-{[4,6-Difluoro-2-methyl-5-(trifluoromethoxy)-1-benzofuran-7-yl]methoxy}-2,3-difluorophenyl)propanoic acid]	−31%
